This note sets out measurements from patent US9382208B1, “Negative allosteric modulators of metabotropic glutamate receptor 2” (Vanderbilt University, priority 2015, dated 2016).

A word on the IC50: it is the point on the concentration scale where inhibition reaches its midpoint.

In the experiment the target is T1, rat mGlu2 (Rattus norvegicus, UniProt P31421).
T1 construct: expressed in transfected cells
The experiment can be described thus: mGlu2 Ca2+ flux assay. Format: cell-based. The note with it: for IC50: Gα15 HEK293 cells stably expressing rat mGlu2, glutamate EC80 addition, read-out: rat mGlu2 IC50; for remaining activity at 30 µM: amplitude of response in the presence of 30 μM test compound as percentage of maximal response to glutamate, read-out: rat mGlu2 Glu max (%). As to the method: Gα15 HEK293 cells stably expressing rat mGlu2 were plated in black-walled, clear-bottomed, poly-D-lysine coated 384-well plates in 20 μL of assay medium (DMEM containing 10% dialyzed FBS, 20 mM HEPES, and 1 mM sodium pyruvate) at a density of 12K cells/well. The cells were grown overnight at 37° C. in the presence of 5% CO2. The next day, medium was removed and the cells incubated with 20 μL of 2.3 μM Fluo-4, AM prepared as a 2.3 mM stock in DMSO and mixed in a 1:1 ratio with 10% (w/v) pluronic acid F-127 and diluted in assay buffer (Hank's balanced salt solution, 20 mM HEPES, and 2.5 mM probenecid) for 45 minutes at 37° C. Dye was removed, 20 μL of assay buffer was added, and the plate was incubated for 5 minutes at room temperature.
Ca^2+ flux was measured using the Functional Drug Screening System (FDSS7000, Hamamatsu, Japan). After establishment of a fluorescence baseline for about 3 seconds, the compounds of the present invention were added to the cells, and the response in cells was measured. 2.3 minutes later an EC20 concentration of the mGlu2 receptor agonist glutamate was added to the cells, and the response of the cells was measured for 1.9 minutes; an EC80 concentration of agonist was added and readings taken for an additional 1.7 minutes. All test compounds were dissolved and diluted to a concentration of 10 mM in 100% DMSO. Compounds were then serially diluted 1:3 in DMSO into 10 point concentration response curves, transferred to daughter plates, and further diluted into assay buffer to a 2× stock. Calcium fluorescence measures were recorded as fold over basal fluorescence; raw data was then normalized to the maximal response to glutamate. Antagonism of the agonist response of the mGlu2 receptor in the present invention was observed as a decrease in response to nearly maximal concentrations of glutamate in the presence of compound compared to the response to glutamate in the absence of compound.
The raw data file containing all time points was used as the data source in the analysis template. This was saved by the FDSS as a tab-delimited text file. Data were normalized using a static ratio function (F/F0) for each measurement of the total 360 values per well divided by each well's initial value. Data were then reduced to peak amplitudes (Max−Initial Min) using a time range that starts approximately 3 seconds prior to the glutamate EC80 addition and continues for approximately 90 seconds. This is sufficient time to capture the peak amplitude of the cellular calcium response. Individual amplitudes were expressed as % ECMax by multiplying each amplitude by 100 and then dividing the product by the mean of the amplitudes derived from the glutamate ECMax-treated wells. IC50 values for test compounds were generated by fitting the normalized values versus the log of the test compound concentration (in mol/L) using a 4 parameter logistic equation where none of the parameters were fixed. Each of the three values collected at each concentration of test compound were weighted evenly.
For NAMs, potency (IC50) and maximum response (% Glu Max), i.e. the amplitude of response in the presence of 30 μM test compound as a percentage of the maximal response to glutamate, are reported. […] Compounds with no measurable activity are designated as “>30,000 nM” since the top concentration of compound tested in the assay is 30 μM.
For orientation: Calcium flux is commonly read through the fluorescence of an indicator in the cells.

T1 sequence (P31421 19-872): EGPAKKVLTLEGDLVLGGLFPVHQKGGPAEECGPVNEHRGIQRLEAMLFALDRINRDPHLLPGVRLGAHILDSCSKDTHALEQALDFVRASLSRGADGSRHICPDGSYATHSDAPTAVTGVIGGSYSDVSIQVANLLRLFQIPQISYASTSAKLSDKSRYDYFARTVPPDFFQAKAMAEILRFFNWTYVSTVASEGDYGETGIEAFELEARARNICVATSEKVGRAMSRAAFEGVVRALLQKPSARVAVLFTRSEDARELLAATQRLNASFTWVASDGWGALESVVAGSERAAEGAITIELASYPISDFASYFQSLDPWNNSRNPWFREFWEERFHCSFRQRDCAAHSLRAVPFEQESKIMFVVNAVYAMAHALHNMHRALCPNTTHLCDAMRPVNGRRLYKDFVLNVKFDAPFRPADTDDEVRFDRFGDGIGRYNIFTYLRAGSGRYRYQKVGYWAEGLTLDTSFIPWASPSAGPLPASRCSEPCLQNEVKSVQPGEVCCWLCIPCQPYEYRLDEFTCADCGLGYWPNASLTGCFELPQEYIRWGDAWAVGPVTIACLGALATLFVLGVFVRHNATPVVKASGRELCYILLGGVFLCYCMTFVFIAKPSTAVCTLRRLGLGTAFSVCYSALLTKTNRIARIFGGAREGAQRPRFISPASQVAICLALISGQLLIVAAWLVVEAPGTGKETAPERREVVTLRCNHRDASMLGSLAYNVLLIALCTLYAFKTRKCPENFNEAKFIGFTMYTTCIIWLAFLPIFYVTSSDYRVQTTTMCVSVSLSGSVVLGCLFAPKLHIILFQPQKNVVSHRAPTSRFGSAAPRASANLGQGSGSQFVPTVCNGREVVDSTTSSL

Turning to `NC(=O)c1cn(-c2ccc(F)cc2)c2ccc(NCCc3ccncc3)cc2c1=O` [Compound 26, 1-(4-fluorophenyl)-4-oxo-6-((2-(pyridin-4-yl)ethyl)amino)-1,4-dihydroquinoline-3-carboxamide], the half-maximal inhibitory concentration (IC50) worked out at 444 nM and the remaining activity at 30 µM came to 1.91%.

On to `NC(=O)c1cn(-c2ccc(F)cc2)c2ccc(NCCc3cccnc3)cc2c1=O` [Compound 27, 1-(4-fluorophenyl)-4-oxo-6-((2-(pyridin-3-yl)ethyl)amino)-1,4-dihydroquinoline-3-carboxamide], for which the IC50 was determined as 391 nM and the remaining activity at 30 µM was 1.75%.

On to `NC(=O)c1cn(-c2ccc(F)cc2)c2ccc(NCCN3CCOCC3)cc2c1=O` [Compound 28, 1-(4-fluorophenyl)-6-((2-morpholinoethyl)amino)-4-oxo-1,4-dihydroquinoline-3-carboxamide], for which the IC50 worked out at 1150 nM and the remaining activity at 30 µM was found to be 0.77%.

Take `Cc1ncc(COc2ccc3c(c2)c(=O)c(C(N)=O)cn3-c2ccc(F)cc2)cn1` [Compound 29, 1-(4-fluorophenyl)-6-((2-methylpyrimidin-5-yl)methoxy)-4-oxo-1,4-dihydroquinoline-3-carboxamide]: the concentration for half-maximal inhibition (IC50) was 843 nM and the remaining activity at 30 µM worked out at 1.92%.

Regarding `CC(Oc1ccc2c(c1)c(=O)c(C(N)=O)cn2-c1ccc(F)cc1)c1cccnc1` (stereo not drawn) [Compound 30, 1-(4-fluorophenyl)-4-oxo-6-(1-(pyridin-3-yl)ethoxy)-1,4-dihydroquinoline-3-carboxamide], the half-maximal inhibitory concentration (IC50) is 391 ± 44 nM and the remaining activity at 30 µM was 1.31 ± 0.45%.

With `Cc1ncc(CN(C)c2ccc3c(c2)c(=O)c(C(N)=O)cn3-c2ccc(F)cc2)cn1` [Compound 31, 1-(4-fluorophenyl)-6-(methyl((2-methylpyrimidin-5-yl)methyl)amino)-4-oxo-1,4-dihydroquinoline-3-carboxamide], the IC50 stood at 153 ± 33 nM and the remaining activity at 30 µM was found to be 1.86 ± 0.26%.

Regarding `NC(=O)c1cn(-c2ccc(F)cc2)c2ccc(COc3ccncc3F)cc2c1=O` [Compound 32, 1-(4-fluorophenyl)-6-(((3-fluoropyridin-4-yl)oxy)methyl)-4-oxo-1,4-dihydroquinoline-3-carboxamide], the half-inhibitory concentration (IC50) was 243 ± 63 nM and the remaining activity at 30 µM was 1.83 ± 0.2%.

Regarding `Cc1cc(OCc2ccc3c(c2)c(=O)c(C(N)=O)cn3-c2ccc(F)cc2)ccn1` [Compound 33, 1-(4-fluorophenyl)-6-(((2-methylpyridin-4-yl)oxy)methyl)-4-oxo-1,4-dihydroquinoline-3-carboxamide], the IC50 amounted to 421 nM and the remaining activity at 30 µM is 2.18%.

For the molecule `NC(=O)c1cn(-c2ccc(F)cc2)c2ccc(COc3ccnc(C(F)(F)F)c3)cc2c1=O` [Compound 34, 1-(4-fluorophenyl)-4-oxo-6-(((2-(trifluoromethyl)pyridin-4-yl)oxy)methyl)-1,4-dihydroquinoline-3-carboxamide], the IC50 came to 534 nM and the remaining activity at 30 µM was determined as 1.97%.

With `Cc1ncc(OCc2ccc3c(c2)c(=O)c(C(N)=O)cn3-c2ccc(F)cc2)cn1` [Compound 35, 1-(4-fluorophenyl)-6-(((2-methylpyrimidin-5-yl)oxy)methyl)-4-oxo-1,4-dihydroquinoline-3-carboxamide], the IC50 amounted to 287 ± 51 nM and the remaining activity at 30 µM was determined as 1.71 ± 0.2%.

With `NC(=O)c1cn(-c2ccc(F)cc2)c2ccc(COc3ccc(C(F)(F)F)nc3)cc2c1=O` [Compound 36, 1-(4-fluorophenyl)-4-oxo-6-(((6-(trifluoromethyl)pyridin-3-yl)oxy)methyl)-1,4-dihydroquinoline-3-carboxamide], the IC50 was found to be 1460 nM and the remaining activity at 30 µM is 1.28%.

For the molecule `NC(=O)c1cn(-c2ccc(F)cc2)c2ccc(COc3ccc(Cl)nc3)cc2c1=O` [Compound 37, 6-(((6-chloropyridin-3-yl)oxy)methyl)-1-(4-fluorophenyl)-4-oxo-1,4-dihydroquinoline-3-carboxamide], the half-maximal inhibitory concentration (IC50) is 203 ± 42 nM and the remaining activity at 30 µM was found to be 1.7 ± 0.12%.

On to `NC(=O)c1cn(-c2ccc(F)cc2)c2ccc(N3CCCCC3c3cccnc3)cc2c1=O` (stereo not drawn) [Compound 38, 1-(4-fluorophenyl)-4-oxo-6-(2-(pyridin-3-yl)piperidin-1-yl)-1,4-dihydroquinoline-3-carboxamide], for which the half-inhibitory concentration (IC50) was determined as 900 nM and the remaining activity at 30 µM was 1.68%.

`NC(=O)c1cn(-c2ccc(F)cc2)c2ccc(COc3cccnc3F)cc2c1=O` [Compound 39, 1-(4-fluorophenyl)-6-(((2-fluoropyridin-3-yl)oxy)methyl)-4-oxo-1,4-dihydroquinoline-3-carboxamide]: the half-maximal inhibitory concentration (IC50) amounted to 883 nM and the remaining activity at 30 µM came out at 0.83%.

Consider `NC(=O)c1cn(-c2ccc(F)cc2)c2ccc(N3CCCC3c3cccnc3)cc2c1=O` (stereo not drawn) [Compound 40, 1-(4-fluorophenyl)-4-oxo-6-(2-(pyridin-3-yl)pyrrolidin-1-yl)-1,4-dihydroquinoline-3-carboxamide], for which the half-inhibitory concentration (IC50) turned out to be 429 nM and the remaining activity at 30 µM is 1.81%.

In the case of `Cc1ccc(OCc2ccc3c(c2)c(=O)c(C(N)=O)cn3-c2ccc(F)cc2)cn1` [Compound 41, 1-(4-fluorophenyl)-6-(((6-methylpyridin-3-yl)oxy)methyl)-4-oxo-1,4-dihydroquinoline-3-carboxamide], the IC50 was determined as 265 ± 73 nM and the remaining activity at 30 µM is 1.62 ± 0.23%.

Turning to `CCN(Cc1cccnc1)c1ccc2c(c1)c(=O)c(C(N)=O)cn2-c1ccc(F)cc1` [Compound 42, 6-(ethyl(pyridin-3-ylmethyl)amino)-1-(4-fluorophenyl)-4-oxo-1,4-dihydroquinoline-3-carboxamide], the IC50 is 167 nM and the remaining activity at 30 µM was 2.57%.

`NC(=O)c1cn(-c2ccc(F)cc2)c2ccc(N3Cc4cccnc4C3)cc2c1=O` [Compound 43, 1-(4-fluorophenyl)-4-oxo-6-(5H-pyrrolo[3,4-b]pyridin-6(7H)-yl)-1,4-dihydroquinoline-3-carboxamide]: the IC50 was found to be 5040 nM and the remaining activity at 30 µM was 1.85%.

Turning to `NC(=O)c1cn(-c2ccc(F)cc2)c2ccc(OCc3cccnc3)cc2c1=O` [Compound 44, 1-(4-fluorophenyl)-4-oxo-6-(pyridin-3-ylmethoxy)-1,4-dihydroquinoline-3-carboxamide], the IC50 was found to be 1080 nM and the remaining activity at 30 µM stood at 1.67%.

For the molecule `NC(=O)c1cn(-c2ccc(F)cc2)c2ccc(COc3ccc(F)nc3)cc2c1=O` [Compound 45, 1-(4-fluorophenyl)-6-(((6-fluoropyridin-3-yl)oxy)methyl)-4-oxo-1,4-dihydroquinoline-3-carboxamide], the half-inhibitory concentration (IC50) came to 352 nM and the remaining activity at 30 µM was 1.47%.

In the case of `NC(=O)c1cn(-c2ccc(F)cc2)c2ccc(CCc3ccnc(C(F)(F)F)c3)cc2c1=O` [Compound 46, 1-(4-fluorophenyl)-4-oxo-6-(2-(2-(trifluoromethyl)pyridin-4-yl)ethyl)-1,4-dihydroquinoline-3-carboxamide], the IC50 turned out to be 269 nM and the remaining activity at 30 µM turned out to be 0.78%.

For the molecule `NC(=O)c1cn(-c2ccc(F)cc2)c2ccc(CCc3ccc(C(F)(F)F)nc3)cc2c1=O` [Compound 47, 1-(4-fluorophenyl)-4-oxo-6-(2-(6-(trifluoromethyl)pyridin-3-yl)ethyl)-1,4-dihydroquinoline-3-carboxamide], the IC50 is 1550 nM and the remaining activity at 30 µM was found to be 1.21%.

For `NC(=O)c1cn(-c2ccc(F)cc2)c2ccc(CCc3cncc(F)c3)cc2c1=O` [Compound 48, 1-(4-fluorophenyl)-6-(2-(5-fluoropyridin-3-yl)ethyl)-4-oxo-1,4-dihydroquinoline-3-carboxamide], the IC50 worked out at 1030 nM and the remaining activity at 30 µM amounted to 1.4%.

Take `Cc1ncc(CCc2cc(F)c3c(c2)c(=O)c(C(N)=O)cn3-c2ccc(F)cc2)cn1` [Compound 49, 8-fluoro-1-(4-fluorophenyl)-6-(2-(2-methylpyrimidin-5-yl)ethyl)-4-oxo-1,4-dihydroquinoline-3-carboxamide]: the IC50 was determined as 155 nM and the remaining activity at 30 µM was 1.53%.
